Test results taken from patent US5994349A, “3-carboalkoxy-2, 3-dihydro-1H-phenothiazin-4[10H]-one derivatives” (priority 1997, dated 1999).
Like-named read-outs stand apart in the source and are kept apart here.

Columns and labels:
neurotoxicity (rotorod) [1] = assay: rotorod toxicity, oral rat (Phase VIA/VIB); type: in vivo, male Sprague-Dawley rats; conditions: rat oral, 30 mg/kg
Method: (§1) Initial evaluations for anticonvulsant activity include phases I, VIA and VIB test procedures. These tests are performed intraperitoneally in male Carworth Farms No. 1 (CF1) mice, weighing 18-25 g (Phase I) or orally in male Sprague-Dawley rats, weighing 100-150 g (Phases VIA and VIB). The evaluation is based on three tests: maximal electroshock (MES), subcutaneous (scMet), and the rotorod test for neurological toxicity (Tox). (a) Anticonvulsant Screening Project, Antiepileptic Drug Development Program, National Institutes of Health, DHEW Publ (NIH)(U.S.) 1978, NIH 78-1093. (b) Porter, R. J.; Cereghino, J. J.; Gladding, G. D.; Hessie, B. J.; Kupferberg, H. J.; Scoville, B.; White, B. G. Antiepileptic drug development program. Cleveland Clin. Q. 1984, 51, 293-305. (c) Krall, R. L.; Penry, J. K.; White, B. G.; Kupferberg, H. J.; Swinyard, E. A. Antiepileptic drug development: II. Anticonvulsant drug screening. Epilepsia 1978, 19, 400-428. In the MES test, maximal electroshock seizures are elicited with a 60- cycle alternating current of 50 mA intensity (5-7 times that necessary to elicit minimal electroshock seizures) delivered via corneal electrodes for 0.2 seconds. A drop of 0.9% saline is placed on the eye prior to application of the electrodes in order to […]. Abolition of the hind limb tonic extension component of the seizure is defined as protection and results are expressed as the number of animals protected/the number of animals tested.
The rotorod test is used to evaluate neurotoxicity. The animal is placed on a 1 inch diameter knurled plastic rod rotating at 6 rpm. Normal mice can remain on a rod rotating at this speed indefinitely.
(§2) To differentiate the results between different rodent species, 4b (X=H), as well as 4a (R=H), 4e (R=Cl), 4f (R=Cl) and 4i (R=CH3) are subsequently evaluated for oral (po) activity in the rat (Phase VIA or VIB).

[2] = test system: pentylenetetrazol seizures; assay: subcutaneous pentylenetetrazol (scMet) test, Phase I, mice ip; type: in vivo, male Carworth Farms No. 1 (CF1) mice; conditions: Mus musculus, mice ip
Method: as §1
In the sc MET test, eighty-five mg/kg of pentylenetetrazol, which induces seizures in more than 95% of mice, is administered as a 0.5% solution subcutaneously in the posterior midline. The animal is observed for 30 minutes. Failure to observe even a threshold seizure (a single episode of clonic spasms of at least 5 seconds duration) is defined as protection and the results are expressed as the number of animals protected/ the number of animals tested. […]

neurotoxicity (rotorod) [3] = assay: rotorod test for neurological toxicity (Tox), Phase I, mice ip; type: in vivo, male Carworth Farms No. 1 (CF1) mice
Method: as §1
The rotorod test is used to evaluate neurotoxicity. The animal is placed on a 1 inch diameter knurled plastic rod rotating at 6 rpm. Normal mice can remain on a rod rotating at this speed indefinitely. […]

[4] = test system: maximal electroshock seizures; assay: maximal electroshock (MES) test, oral rat (Phase VIA/VIB); type: in vivo, male Sprague-Dawley rats; conditions: 30 mg/kg
Method: as §1, §2

[5] = test system: maximal electroshock seizures; assay: maximal electroshock (MES) test, Phase I, mice ip; type: in vivo, male Carworth Farms No. 1 (CF1) mice; conditions: Mus musculus
Method: as §1
In phase I, compounds are suspended in 0.5% aqueous methylcellulose and are administered intraperitoneally at three dosage levels (30, 100, and 300 mg/kg) with anticonvulsant activity and motor impairment noted 30 min and 4 h (and in some cases 2 h and 6 h) after administration.

[6] = 0.5 h, 30 min, read-out: scMet 30 min
[7] = 0.5 h, 30 min, read-out: scMet 30 min (converted)
[8] = 4 h, read-out: scMet 4 h (converted)
[9] = 4 h, read-out: MES 4 h (converted)
[10] = 0.5 h, 30 min, read-out: MES 30 min (converted)

COC(=O)[C@@H]1C(=O)C2=C(C[C@H]1C)Nc1ccccc1S2 (relative stereo) [Compound 4a, 3-Carbomethoxy-2-methyl-2,3-dihydro-1H-phenothiazin-4[10H] -one]
0/2: Tox 4 h (neurotoxicity (rotorod) [3]; 30 mg/kg) | Tox 4 h (neurotoxicity (rotorod) [3]; 300 mg/kg)
0/8: Tox 30 min (neurotoxicity (rotorod) [3]; 100 mg/kg)
50%: responders at 30 mg/kg ([4]; 1.00 h) | responders at 30 mg/kg ([4]; 4.00 h)
0/4: Tox (neurotoxicity (rotorod) [1]; 0.25 h) | Tox (neurotoxicity (rotorod) [1]; 0.50 h) | Tox (neurotoxicity (rotorod) [1]; 1.00 h) | Tox (neurotoxicity (rotorod) [1]; 2.00 h) | Tox (neurotoxicity (rotorod) [1]; 4.00 h) | Tox 30 min (neurotoxicity (rotorod) [3]; 30 mg/kg) | Tox 4 h (neurotoxicity (rotorod) [3]; 100 mg/kg)
1/4: Tox 30 min (neurotoxicity (rotorod) [3]; 300 mg/kg)
100%: responders at 300 mg/kg [5, 9] | responders at 100 mg/kg [5, 10] | responders at 300 mg/kg [5, 10]
0%: responders at 30 mg/kg [2, 6] | responders at 100 mg/kg [2, 6] | responders at 300 mg/kg [2, 7] | responders at 30 mg/kg ([2]; 4 h, read-out: scMet 4 h) | responders at 100 mg/kg ([2]; 4 h, read-out: scMet 4 h) | responders at 300 mg/kg [2, 8] | responders at 30 mg/kg ([4]; 0.25 h) | responders at 30 mg/kg ([5]; 4 h, read-out: MES 4 h) | responders at 30 mg/kg [5, 10]
25%: responders at 30 mg/kg ([4]; 2.00 h) | responders at 30 mg/kg ([4]; 0.5 h, 0.50 h)
33.3%: responders at 100 mg/kg [5, 9]

CCOC(=O)[C@@H]1C(=O)C2=C(C[C@H]1C)Nc1ccc(Cl)cc1S2 (relative stereo) [Compound 4f, 7-Chloro-3-carbethoxy-2-methyl-2,3-dihydro-1H-phenothiazin-4[10H] -one]
0%: responders at 30 mg/kg [2, 6] | responders at 100 mg/kg [2, 6] | responders at 300 mg/kg [2, 7] | responders at 30 mg/kg ([2]; 4 h, read-out: scMet 4 h) | responders at 100 mg/kg ([2]; 4 h, read-out: scMet 4 h) | responders at 30 mg/kg ([4]; 0.25 h) | responders at 30 mg/kg ([5]; 4 h, read-out: MES 4 h) | responders at 30 mg/kg [5, 10]
100%: responders at 300 mg/kg [5, 9] | responders at 300 mg/kg [5, 10]
0/4: Tox (neurotoxicity (rotorod) [1]; 0.25 h) | Tox (neurotoxicity (rotorod) [1]; 0.50 h) | Tox (neurotoxicity (rotorod) [1]; 1.00 h) | Tox (neurotoxicity (rotorod) [1]; 2.00 h) | Tox (neurotoxicity (rotorod) [1]; 4.00 h) | Tox 30 min (neurotoxicity (rotorod) [3]; 30 mg/kg) | Tox 4 h (neurotoxicity (rotorod) [3]; 100 mg/kg) | Tox 30 min (neurotoxicity (rotorod) [3]; 300 mg/kg)
66.7%: responders at 100 mg/kg [5, 10]
40%: responders at 300 mg/kg [2, 8]
25%: responders at 30 mg/kg ([4]; 0.5 h, 0.50 h)
0/2: Tox 4 h (neurotoxicity (rotorod) [3]; 30 mg/kg) | Tox 4 h (neurotoxicity (rotorod) [3]; 300 mg/kg)
75%: responders at 30 mg/kg ([4]; 1.00 h) | responders at 30 mg/kg ([4]; 2.00 h) | responders at 30 mg/kg ([4]; 4.00 h)
33.3%: responders at 100 mg/kg [5, 9]
0/8: Tox 30 min (neurotoxicity (rotorod) [3]; 100 mg/kg)

COC(=O)[C@@H]1C(=O)C2=C(C[C@H]1C)Nc1ccc(Cl)cc1S2 (relative stereo) [Compound 4e, 7-Chloro-3-carbomethoxy-2-methyl-2,3-dihydro-1H-phenothiazin-4[10H] -one]
0/8: Tox 30 min (neurotoxicity (rotorod) [3]; 100 mg/kg)
75%: responders at 30 mg/kg ([4]; 1.00 h) | responders at 30 mg/kg ([4]; 2.00 h)
0/4: Tox (neurotoxicity (rotorod) [1]; 0.25 h) | Tox (neurotoxicity (rotorod) [1]; 0.50 h) | Tox (neurotoxicity (rotorod) [1]; 1.00 h) | Tox (neurotoxicity (rotorod) [1]; 2.00 h) | Tox (neurotoxicity (rotorod) [1]; 4.00 h) | Tox 30 min (neurotoxicity (rotorod) [3]; 30 mg/kg) | Tox 4 h (neurotoxicity (rotorod) [3]; 100 mg/kg) | Tox 30 min (neurotoxicity (rotorod) [3]; 300 mg/kg)
50%: responders at 30 mg/kg ([4]; 4.00 h)
0%: responders at 30 mg/kg [2, 6] | responders at 100 mg/kg [2, 6] | responders at 300 mg/kg [2, 7] | responders at 30 mg/kg ([2]; 4 h, read-out: scMet 4 h) | responders at 100 mg/kg ([2]; 4 h, read-out: scMet 4 h) | responders at 300 mg/kg [2, 8] | responders at 30 mg/kg ([4]; 0.25 h) | responders at 30 mg/kg ([4]; 0.5 h, 0.50 h) | responders at 30 mg/kg ([5]; 4 h, read-out: MES 4 h) | responders at 30 mg/kg [5, 10] | responders at 100 mg/kg [5, 10] | responders at 300 mg/kg [5, 10]
100%: responders at 300 mg/kg [5, 9]
0/2: Tox 4 h (neurotoxicity (rotorod) [3]; 30 mg/kg) | Tox 4 h (neurotoxicity (rotorod) [3]; 300 mg/kg)
66.7%: responders at 100 mg/kg [5, 9]

CCOC(=O)[C@@H]1C(=O)C2=C(C[C@H]1C)Nc1ccc(Br)cc1S2 (relative stereo) [Compound 4k, 7-Bromo-3-carbethoxy-2-methyl-2,3-dihydro-1H-phenothiazin-4[10H]-one]
0/4: Tox 30 min (neurotoxicity (rotorod) [3]; 10 mg/kg) | Tox 4 h (neurotoxicity (rotorod) [3]; 30 mg/kg) | Tox 30 min (neurotoxicity (rotorod) [3]; 100 mg/kg) | Tox 4 h (neurotoxicity (rotorod) [3]; 300 mg/kg)
0/2: Tox 4 h (neurotoxicity (rotorod) [3]; 10 mg/kg) | Tox 4 h (neurotoxicity (rotorod) [3]; 100 mg/kg)
0/8: Tox 30 min (neurotoxicity (rotorod) [3]; 30 mg/kg) | Tox 30 min (neurotoxicity (rotorod) [3]; 300 mg/kg)
0%: responders at 10 mg/kg [2, 6] | responders at 30 mg/kg [2, 6] | responders at 100 mg/kg [2, 6] | responders at 300 mg/kg [2, 7] | responders at 10 mg/kg ([2]; 4 h, read-out: scMet 4 h) | responders at 30 mg/kg ([2]; 4 h, read-out: scMet 4 h) | responders at 100 mg/kg ([2]; 4 h, read-out: scMet 4 h) | responders at 300 mg/kg [2, 8] | responders at 10 mg/kg ([5]; 4 h, read-out: MES 4 h) | responders at 30 mg/kg ([5]; 4 h, read-out: MES 4 h) | responders at 100 mg/kg [5, 9] | responders at 10 mg/kg ([5]; 0.5 h, 30 min, read-out: MES 30 min) | responders at 30 mg/kg [5, 10] | responders at 100 mg/kg [5, 10]
100%: responders at 300 mg/kg [5, 9] | responders at 300 mg/kg [5, 10]
